From article PMC3408963 (Bioorganic & medicinal chemistry, 2012)

Tests used:
COX-1 = COX-1 (Homo sapiens, UniProt P23219); assay type: biochemical; conditions: for COX-1 inhibition, result in words: initial screen at 25 μM / relevant concentration range; for IC50: read-out: IC50 COX-1, radioactivity assay, pre-incubation 17 min at 25 °C and 3 min at 37 °C, 50 μM [14C]-AA for 30 sec, average of at least two independent experiments
COX-2 = target: T1, COX-2 (Homo sapiens, UniProt P35354); assay type: biochemical; conditions: for IC50: read-out: IC50 COX-2, radioactivity assay, pre-incubation 17 min at 25 °C and 3 min at 37 °C, 50 μM [14C]-AA for 30 sec, average of at least two independent experiments; for COX-2 inhibition, result in words: initial screen at 25 μM / relevant concentration range
T1 sequence (P35354 18-604): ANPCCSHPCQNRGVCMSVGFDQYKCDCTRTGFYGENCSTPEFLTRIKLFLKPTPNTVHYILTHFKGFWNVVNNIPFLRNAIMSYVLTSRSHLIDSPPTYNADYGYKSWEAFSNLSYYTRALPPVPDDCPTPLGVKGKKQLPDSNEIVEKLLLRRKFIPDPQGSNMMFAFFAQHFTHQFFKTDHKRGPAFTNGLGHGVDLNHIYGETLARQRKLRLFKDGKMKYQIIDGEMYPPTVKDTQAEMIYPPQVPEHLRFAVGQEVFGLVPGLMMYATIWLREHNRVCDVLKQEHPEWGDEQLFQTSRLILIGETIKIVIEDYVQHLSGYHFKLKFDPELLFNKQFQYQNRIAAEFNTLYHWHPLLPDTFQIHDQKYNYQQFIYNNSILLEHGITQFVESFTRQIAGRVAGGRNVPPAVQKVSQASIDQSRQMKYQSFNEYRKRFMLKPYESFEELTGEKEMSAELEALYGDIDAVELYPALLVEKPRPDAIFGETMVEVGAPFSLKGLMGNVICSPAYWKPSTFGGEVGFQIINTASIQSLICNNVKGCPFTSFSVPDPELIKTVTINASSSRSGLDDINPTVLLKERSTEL

Chain of COX-1 (P23219 24-599): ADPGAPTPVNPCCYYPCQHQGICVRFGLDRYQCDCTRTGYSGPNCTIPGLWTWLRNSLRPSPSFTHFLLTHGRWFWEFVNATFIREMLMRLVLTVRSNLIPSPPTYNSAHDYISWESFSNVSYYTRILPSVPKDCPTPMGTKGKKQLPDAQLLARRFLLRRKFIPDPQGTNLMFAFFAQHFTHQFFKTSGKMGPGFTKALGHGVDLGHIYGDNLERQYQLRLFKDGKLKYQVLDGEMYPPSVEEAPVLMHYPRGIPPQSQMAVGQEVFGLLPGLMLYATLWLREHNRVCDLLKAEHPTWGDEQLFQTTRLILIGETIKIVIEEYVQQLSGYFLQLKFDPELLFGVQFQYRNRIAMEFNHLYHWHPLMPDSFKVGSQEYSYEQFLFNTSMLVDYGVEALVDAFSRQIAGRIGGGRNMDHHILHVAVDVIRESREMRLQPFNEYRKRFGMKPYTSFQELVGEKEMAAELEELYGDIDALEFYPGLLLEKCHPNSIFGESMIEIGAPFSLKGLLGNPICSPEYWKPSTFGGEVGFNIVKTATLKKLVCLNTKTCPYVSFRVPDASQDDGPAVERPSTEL

Row | Molecule | COX-1 inhibition, result in words (COX-1) | IC50 (COX-1) [µM] | IC50 (COX-2) [nM] | COX-2 inhibition, result in words (COX-2)
1 | 1-(1-Carboxy-1,2-dicarba-closo-dodecaboran(12)yl)-5-methoxy-2-methyl-1H-indole-3-acetic acid methyl ester [Compound 1o] | also inhibited COX-1 | 12.8 | 84 | 
2 | 1-(1-Carboxy-1,2-dicarba-closo-dodecaboran(12)yl)-5-methoxy-2-methyl-1H-indole-3-acetic acid tert-butyl ester [Compound 3o] | not COX-1 | > 25 | 1410 | exclusively inhibited COX-2
3 | 1-(1-Carboxy-1,2-dicarba-closo-dodecaboran(12)yl)-5-methoxy-2-methyl-1H-indole-3-acetic acid benzyl ester [Compound 2o] | also inhibited COX-1 | 15.1 | 11600 | 
4 | 1-(1-Carboxy-1,2-dicarba-closo-dodecaboran(12)yl)-5-methoxy-2-methyl-1H-indole-3-acetic acid [Compound 4o] | not COX-1 | > 25 | 3680 | exclusively inhibited COX-2
5 | COC(=O)Cc1c(C)n(C(=O)c2ccc(Cl)cc2)c2ccc(OC)cc12 [Compound 1i, Indomethacin methyl ester, reference compound] |  | > 25 |  | 
